Laboratory results taken from ChEMBL document CHEMBL1201862, “PubChem BioAssay data set” (2004).
The source made the active and inactive calls.

What was measured:
Streptokinase A = target: T1, Streptokinase A (Streptococcus pyogenes serotype M1, UniProt P10520); test: viability-normalized secreted streptokinase activity reduction – plasminogen activation absorbance, OD405, dose response (AID 1914); format: functional, Streptococcus pyogenes M1 GAS;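 further: secreted streptokinase activity via plasminogen activation per viability signal from cell pellet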
T1 sequence (P10520 whole entry): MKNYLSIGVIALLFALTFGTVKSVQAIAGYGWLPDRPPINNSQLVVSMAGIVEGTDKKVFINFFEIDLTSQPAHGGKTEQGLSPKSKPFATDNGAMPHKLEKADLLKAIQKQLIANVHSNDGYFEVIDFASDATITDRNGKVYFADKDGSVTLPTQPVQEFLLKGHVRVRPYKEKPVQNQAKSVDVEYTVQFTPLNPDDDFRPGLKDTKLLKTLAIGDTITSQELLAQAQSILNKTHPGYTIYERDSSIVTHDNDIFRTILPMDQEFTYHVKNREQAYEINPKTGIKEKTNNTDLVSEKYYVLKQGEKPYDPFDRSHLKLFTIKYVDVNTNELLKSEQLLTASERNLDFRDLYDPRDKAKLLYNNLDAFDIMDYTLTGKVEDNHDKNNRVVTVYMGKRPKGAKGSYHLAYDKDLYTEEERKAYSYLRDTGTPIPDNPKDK

[1] = target: T2, Tyrosine-protein phosphatase non-receptor type 22 (Homo sapiens, UniProt Q9Y2R2); format: functional;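 further: confirmatory dose-response retest of primary uHTS hits for inhibition of LYP phosphatase, measured by a fluorescence intensity read-out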
T2 sequence (Q9Y2R2 whole entry): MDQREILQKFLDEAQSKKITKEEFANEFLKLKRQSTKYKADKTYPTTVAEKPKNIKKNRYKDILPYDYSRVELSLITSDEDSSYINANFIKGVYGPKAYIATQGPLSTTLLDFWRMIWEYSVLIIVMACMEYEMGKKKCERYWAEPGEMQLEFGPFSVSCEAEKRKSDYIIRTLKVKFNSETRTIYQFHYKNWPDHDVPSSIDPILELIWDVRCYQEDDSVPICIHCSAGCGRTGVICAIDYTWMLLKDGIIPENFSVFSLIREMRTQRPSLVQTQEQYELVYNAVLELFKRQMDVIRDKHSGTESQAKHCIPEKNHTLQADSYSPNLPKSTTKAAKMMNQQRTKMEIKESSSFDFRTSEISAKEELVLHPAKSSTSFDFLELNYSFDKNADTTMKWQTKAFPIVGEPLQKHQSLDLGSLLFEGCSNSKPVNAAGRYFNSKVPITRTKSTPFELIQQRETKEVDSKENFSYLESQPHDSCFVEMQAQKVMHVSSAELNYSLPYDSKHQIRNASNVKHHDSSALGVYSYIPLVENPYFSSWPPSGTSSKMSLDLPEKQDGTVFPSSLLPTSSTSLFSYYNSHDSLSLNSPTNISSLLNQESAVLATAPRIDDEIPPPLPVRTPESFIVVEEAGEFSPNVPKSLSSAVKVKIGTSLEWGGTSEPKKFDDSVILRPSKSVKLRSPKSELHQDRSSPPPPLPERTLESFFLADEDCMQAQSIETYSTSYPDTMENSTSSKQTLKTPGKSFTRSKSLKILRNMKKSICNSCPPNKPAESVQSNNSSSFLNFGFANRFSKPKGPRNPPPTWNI

[2] = target: Small ubiquitin-related modifier 2 (Homo sapiens, UniProt P61956); test: SUMO2 binding disruption by SUMO1 hits – biochemical, FRET, human SUMO2, uHTS hits, selectivity assay for SUMO1 interaction inhibitor project, dose response (AID 624384); format: functional; settings: read-out: IC50_Mean
Sequence of Small ubiquitin-related modifier 2 (P61956 whole entry): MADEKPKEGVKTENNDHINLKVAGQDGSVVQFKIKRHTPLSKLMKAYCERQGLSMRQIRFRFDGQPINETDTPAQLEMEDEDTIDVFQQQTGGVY

Hexokinase HKDC1 = target: T3, Hexokinase HKDC1 (Homo sapiens, UniProt Q2TB90); test: inhibition of HKDC1 glucose phosphorylation – biochemical, W721R variant, dose response (AID 504729); format: functional
T3 sequence (Q2TB90 whole entry): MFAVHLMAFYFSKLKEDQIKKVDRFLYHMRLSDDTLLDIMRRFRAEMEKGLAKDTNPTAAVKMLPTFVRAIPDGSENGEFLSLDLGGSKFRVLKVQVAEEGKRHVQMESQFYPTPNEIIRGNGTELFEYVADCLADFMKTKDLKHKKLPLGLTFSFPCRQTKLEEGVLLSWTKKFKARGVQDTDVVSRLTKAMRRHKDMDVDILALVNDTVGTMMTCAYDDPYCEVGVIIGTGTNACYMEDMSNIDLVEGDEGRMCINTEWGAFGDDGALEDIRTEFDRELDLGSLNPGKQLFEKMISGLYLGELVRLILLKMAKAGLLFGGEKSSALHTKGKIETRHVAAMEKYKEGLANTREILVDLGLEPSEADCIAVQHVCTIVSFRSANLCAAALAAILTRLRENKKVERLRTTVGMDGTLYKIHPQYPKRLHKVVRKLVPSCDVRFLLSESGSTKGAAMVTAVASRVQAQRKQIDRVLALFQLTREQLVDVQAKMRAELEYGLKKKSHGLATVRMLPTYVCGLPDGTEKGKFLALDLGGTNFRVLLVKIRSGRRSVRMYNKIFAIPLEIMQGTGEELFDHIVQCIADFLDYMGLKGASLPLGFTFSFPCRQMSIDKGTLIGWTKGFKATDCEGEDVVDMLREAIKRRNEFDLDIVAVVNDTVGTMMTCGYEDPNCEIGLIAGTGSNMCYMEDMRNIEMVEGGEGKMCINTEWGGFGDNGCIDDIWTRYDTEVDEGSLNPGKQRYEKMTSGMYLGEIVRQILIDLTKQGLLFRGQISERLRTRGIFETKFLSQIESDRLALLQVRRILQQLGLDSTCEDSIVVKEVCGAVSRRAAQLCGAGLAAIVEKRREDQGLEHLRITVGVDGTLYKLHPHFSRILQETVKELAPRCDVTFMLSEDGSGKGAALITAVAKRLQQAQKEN

SMILES | EC50 (Streptokinase A) | IC50 [1] | IC50 [2] | IC50 (Hexokinase HKDC1)
CCN1/C(=C/c2ccc3cc(C)ccc3[n+]2CC)Sc2cc(C)c(C)cc21 | > 150 µM (not active) | – | – | –
Nc1ccc2nc3c(O)nc(S)nc3nc2c1 | – | > 79.4 µM (inactive) | 0.584 µM (active) | –
Cc1oc2c(c1C(=O)c1ccccc1)C(=O)C(=O)c1ccccc1-2 | – | – | – | 14.5 µM (active)
CSc1ccc(C=NNc2ccc(S(=O)(=O)Nc3ccccc3C(=O)O)cc2[N+](=O)[O-])cc1 | – | – | 53.1 µM (inactive) | –
O=C(O)COc1ccc(/C=N/NC(=O)c2ccc(-c3csc(Nc4ccc(Cl)cc4)n3)cc2)cc1 | – | < 1.24 µM (active) | – | 33 µM (inactive)
CC(/C=C1\SC(=S)N(NS(=O)(=O)c2ccccc2)C1=O)=C\c1ccccc1 | 21.4 µM (active) | – | – | –
